Source: paper PMC11842024, “Reversible male contraception by targeted inhibition of serine/threonine kinase 33” (Science (New York, N.Y.), 2024)

Columns and labels:
STK33 [1] = target: T1, STK33 (Homo sapiens, UniProt Q9BYT3); assay: NanoBRET target engagement intracellular kinase assay; assay type: cell-based; design: host or cells: HEK293 (HEK293T cultured); conditions: for IC50: HEK293 cells, 2 hours incubation
Procedure: (§1) NanoBRET Target Engagement intracellular kinase assay. HEK293T cells were cultured in […]
(§2) The cell line underwent authentication by short tandem repeat (STR) profiling at Cytogenetics and Cell Authentication Core (CCAC) at MD Anderson Cancer Center. NanoBRET Target Engagement intracellular kinase assay, K-10 assay (Cat. # N2641), K-9 assay (Cat. # N2631), transfection reagent FuGENE HD (Cat. # E2311), transfection carrier DNA (Cat. # E4881), NanoLuc-STK33 fusion vector (Cat. # NV2111), NanoLuc-RET fusion vector (Cat. # NV1951), NanoLuc-CLK1 fusion vector (Cat. # NV1131), NanoLuc-CLK2 fusion vector (Cat. # NV1141), and NanoLuc-CLK4 fusion vector (Cat. # NV1151) were purchased from Promega. The measurement of test compound engagement with cellular target protein was performed in a 384-well format according to manufacturer’s instructions. HEK293 cells were transiently transfected with NanoLuc (STK33, RET, CLK1, CLK2, and CLK4) fusion vectors. After 36 hours of transfection, cells were treated with a fixed concentration of tracer (recommended by Promega) followed by compounds (inhibitors) for 2 hours of incubation. To determine the test compound […]
(§3) 0.4 nM at a fixed tracer concentration. Staurosporine was measured in parallel as a positive control.
(§4) Freshly prepared NanoBRET Nano-Glo substrate plus extracellular NanoLuc inhibitor was then added to initiate the subsequent bioluminescence resonance energy transfer (BRET) measurements using a CLARIOstar Plus BMG LABTECH plate reader. Data analysis was done by measuring the ratio of acceptor emission to donor emission (BRET ratio) and normalized by subtracting no-tracer-control-background. IC50 values were obtained by nonlinear regression using a four-parameter equation in GraphPad Prism 7 (San Diego, CA).

CLK4 [2] = target: T2, CLK4 (Homo sapiens, UniProt Q9HAZ1); assay: as above; assay type: cell-based; design: host or cells: HEK293 (HEK293T cultured); conditions: for IC50: HEK293 cells, 2 hours incubation; for Fold NanoBRET IC50 CLK4 over STK33 (in parentheses): selectivity vs STK33
T2 sequence (Q9HAZ1 whole entry): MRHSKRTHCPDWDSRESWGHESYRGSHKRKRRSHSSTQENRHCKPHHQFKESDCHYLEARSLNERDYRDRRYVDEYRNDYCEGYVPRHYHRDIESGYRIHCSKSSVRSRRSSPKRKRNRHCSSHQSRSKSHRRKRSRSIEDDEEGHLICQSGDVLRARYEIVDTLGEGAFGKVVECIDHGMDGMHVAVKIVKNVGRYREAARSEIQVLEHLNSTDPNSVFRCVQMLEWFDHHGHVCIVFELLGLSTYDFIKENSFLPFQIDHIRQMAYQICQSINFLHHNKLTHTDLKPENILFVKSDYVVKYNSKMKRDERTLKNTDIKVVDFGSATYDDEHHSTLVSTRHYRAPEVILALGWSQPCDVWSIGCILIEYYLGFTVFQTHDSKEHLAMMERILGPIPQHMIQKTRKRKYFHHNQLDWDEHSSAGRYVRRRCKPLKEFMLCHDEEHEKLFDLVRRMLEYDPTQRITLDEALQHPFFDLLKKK
Procedure: as §1, §2, §3, §4

CLK2 [3] = target: T3, CLK2 (Homo sapiens, UniProt P49760); assay: as above; assay type: cell-based; design: host or cells: HEK293 (HEK293T cultured); conditions: for IC50: HEK293 cells, 2 hours incubation; for Fold NanoBRET IC50 CLK2 over STK33 (in parentheses): selectivity vs STK33
T3 sequence (P49760 whole entry): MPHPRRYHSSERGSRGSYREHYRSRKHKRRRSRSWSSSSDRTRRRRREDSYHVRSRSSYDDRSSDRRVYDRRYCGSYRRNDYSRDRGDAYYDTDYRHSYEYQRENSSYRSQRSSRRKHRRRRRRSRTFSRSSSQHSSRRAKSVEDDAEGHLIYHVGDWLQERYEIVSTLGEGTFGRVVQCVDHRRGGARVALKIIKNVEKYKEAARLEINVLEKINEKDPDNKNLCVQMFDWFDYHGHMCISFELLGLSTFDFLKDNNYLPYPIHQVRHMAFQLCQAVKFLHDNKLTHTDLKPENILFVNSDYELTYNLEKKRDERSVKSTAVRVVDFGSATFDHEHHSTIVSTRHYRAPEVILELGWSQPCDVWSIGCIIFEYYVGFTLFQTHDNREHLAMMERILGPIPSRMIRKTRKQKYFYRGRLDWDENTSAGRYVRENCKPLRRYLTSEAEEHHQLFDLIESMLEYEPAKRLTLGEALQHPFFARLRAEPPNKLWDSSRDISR
Procedure: as §1, §2, §3, §4

CLK1 [4] = target: T4, CLK1 (Homo sapiens, UniProt P49759); assay: as above; assay type: cell-based; design: host or cells: HEK293 (HEK293T cultured); conditions: for IC50: HEK293 cells, 2 hours incubation; for Fold NanoBRET IC50 CLK1 over STK33 (in parentheses): selectivity vs STK33
T4 sequence (P49759 whole entry): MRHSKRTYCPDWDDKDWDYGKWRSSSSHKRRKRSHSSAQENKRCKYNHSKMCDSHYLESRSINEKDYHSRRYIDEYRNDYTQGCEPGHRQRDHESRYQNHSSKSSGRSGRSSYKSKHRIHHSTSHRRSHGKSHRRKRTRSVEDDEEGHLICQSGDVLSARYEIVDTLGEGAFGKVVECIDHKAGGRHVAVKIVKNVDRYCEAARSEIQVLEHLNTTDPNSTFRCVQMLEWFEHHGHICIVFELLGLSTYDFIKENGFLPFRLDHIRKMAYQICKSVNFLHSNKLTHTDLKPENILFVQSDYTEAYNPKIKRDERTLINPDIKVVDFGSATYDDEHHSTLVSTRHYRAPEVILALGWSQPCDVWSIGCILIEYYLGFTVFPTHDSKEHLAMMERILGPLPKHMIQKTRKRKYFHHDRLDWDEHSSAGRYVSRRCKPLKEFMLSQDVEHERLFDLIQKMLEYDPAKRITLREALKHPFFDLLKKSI
Procedure: as §1, §2, §3, §4

RET [5] = target: T5, RET (Homo sapiens, UniProt P07949); assay: as above; assay type: cell-based; design: host or cells: HEK293 (HEK293T cultured); conditions: for IC50: HEK293 cells, 2 hours incubation; for Fold NanoBRET IC50 RET over STK33 (in parentheses): selectivity vs STK33
T5 sequence (P07949 29-1114): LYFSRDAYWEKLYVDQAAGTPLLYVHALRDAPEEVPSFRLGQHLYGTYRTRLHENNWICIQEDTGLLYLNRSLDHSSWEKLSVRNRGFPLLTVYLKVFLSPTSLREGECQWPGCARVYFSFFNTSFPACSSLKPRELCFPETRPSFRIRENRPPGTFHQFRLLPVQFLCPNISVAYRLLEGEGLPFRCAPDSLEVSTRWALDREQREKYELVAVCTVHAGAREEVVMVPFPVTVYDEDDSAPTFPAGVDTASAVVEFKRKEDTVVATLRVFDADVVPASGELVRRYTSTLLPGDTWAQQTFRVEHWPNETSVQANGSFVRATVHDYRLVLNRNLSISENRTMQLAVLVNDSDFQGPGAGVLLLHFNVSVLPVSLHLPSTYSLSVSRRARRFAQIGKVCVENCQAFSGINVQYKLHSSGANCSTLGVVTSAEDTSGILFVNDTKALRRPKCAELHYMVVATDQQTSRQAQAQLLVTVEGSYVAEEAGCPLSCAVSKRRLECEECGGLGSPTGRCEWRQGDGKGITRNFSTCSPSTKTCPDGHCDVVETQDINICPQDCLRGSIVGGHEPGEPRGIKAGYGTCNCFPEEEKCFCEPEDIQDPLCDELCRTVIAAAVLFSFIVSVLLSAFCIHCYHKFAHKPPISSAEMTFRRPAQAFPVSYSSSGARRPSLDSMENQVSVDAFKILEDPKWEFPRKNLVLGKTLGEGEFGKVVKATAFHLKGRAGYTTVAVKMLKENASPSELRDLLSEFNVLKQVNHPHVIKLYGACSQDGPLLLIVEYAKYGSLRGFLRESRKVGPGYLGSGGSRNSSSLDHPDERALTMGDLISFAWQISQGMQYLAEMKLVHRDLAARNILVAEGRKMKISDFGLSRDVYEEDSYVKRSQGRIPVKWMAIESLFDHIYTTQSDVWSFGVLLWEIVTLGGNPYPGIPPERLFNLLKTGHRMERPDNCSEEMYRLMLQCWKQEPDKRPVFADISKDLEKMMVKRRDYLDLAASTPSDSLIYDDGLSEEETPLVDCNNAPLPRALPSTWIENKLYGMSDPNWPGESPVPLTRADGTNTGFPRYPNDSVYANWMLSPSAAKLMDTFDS
Procedure: as §1, §2, §3, §4

[6] = Metabolic stability assay in liver microsomes (HLM); assay type: in vitro ADME, human; conditions: 2.0 µM, 0.5 mg protein/mL, NADPH, data >60 min is an extrapolated estimate; for half-life at 2 µM: human, liver microsomes, read-out: Metabolic stability HLM, t1/2
Procedure: (§5) Metabolic stability assay in liver microsomes. The stabilities of CDD-2110, CDD-2211, CDD-2212, CDD-2807, and CDD-3348 in liver microsomes with/without Uridine Diphosphate Glucuronic Acid (UDP-GA, a cofactor of UDP-glucuronosyltransferases) were performed and half-life was calculated as previously reported (36). Briefly, each CDD compound (2.0 μM) was incubated in the mouse or human liver microsomes (0.5 mg protein/mL) at 37°C in 1× PBS fortified with NADPH (1.0 mM) and with/without UDP-GA (2.5 mM). Alamethicin (25 µg/mL) as a pore forming agent was used for the glucuronidation (Table S2A). The samples were collected at specific time-points 0, 30, and 60 min in duplicate. The reactions were terminated by adding equivalent volume of ice-cold methanol (CH3OH) and vortexed. After centrifugation at 15000 g for 10 min, 3.0 μL of the supernatant was analyzed by Thermo TSQ Quantis MS coupled with a Thermo Vanquish UHPLC (San Jose, CA) equipped with a Luna C18 column (1 mm × 50 mm, 1.6 µm, Phenomenex, Torrance, CA). The column temperature was maintained at 40°C. CDD-2807 was monitored under the selected reaction monitoring (SRM) mode coupled with a positive electrospray ionization (ESI) source. The SRM ion pairs were 447→321 for CDD-2807.

CLK4 [7] = target: T2, CLK4; assay: LanthaScreen binding assay (ThermoFisher SelectScreen); design: purchased SelectScreen Services (ThermoFisher)
Excerpt: (§6) In vitro biochemical assays. Several small molecule assays were outsourced to SelectScreen Services (ThermoFisher) for STK33 and for off-target kinases (data sets are available on demand).
(§7) These assays are LanthaScreen (binding assay) and Z’-LYTE (activity assay). Dose-responses were done with at least 5 different concentrations in duplicates, and parameters were optimized by calculations described below and provided with standard errors.
(§8) Calculation of Kd values for kinase inhibitors that bind to the ATP pocket of a kinase from LanthaScreen binding data. DynaFit (71) was used to fit complex equilibria where a tracer is displaced by a dilution series of a kinase inhibitor. This method relies on the concentration of inhibitor, as well as the concentration of kinase and tracer, and Kd of the tracer. The latter three parameters are tabulated by ThermoFisher for each kinase in the LanthaScreen assay panel. […]

STK33 [8] = target: T1, STK33; assay: as above; design: purchased SelectScreen Services (ThermoFisher)
Excerpt: as §6, §7, §8
Since Kd and Ki values are defined the same way, in other words, Kd = [E] [I] / [EI] = Ki, Kd and Ki values can be compared. […]

[9] = Metabolic stability assay in liver microsomes (MLM); assay type: in vitro ADME, mouse; conditions: 2.0 µM, 0.5 mg protein/mL, NADPH, data >60 min is an extrapolated estimate; for half-life at 2 µM: mouse, liver microsomes, read-out: Metabolic stability MLM, t1/2
Procedure: as §5

CLK2 [10] = target: T3, CLK2; assay: Z'-LYTE activity assay (ThermoFisher SelectScreen); assay type: biochemical; design: purchased SelectScreen Services (ThermoFisher); conditions: [ATP] = Kmapp
Excerpt: as §6
(§9) These assays are LanthaScreen (binding assay) and Z’-LYTE (activity assay). Dose-responses were done with at least 5 different concentrations in duplicates, and parameters were optimized by calculations described below and provided with standard errors. […]
(§10) Calculation of Ki values for kinase inhibitors from Z’-LYTE inhibition data. The Morrison equation with [ATP] = Kmapp for competitive inhibition (GraphPad Prism 7, San Diego, CA) was used to get Ki values. Since Kd and Ki values are defined the same way, in other words, Kd = [E] [I] / [EI] = Ki, Kd and Ki values can be compared. […]

CLK1 [11] = target: T4, CLK1; assay: Z'-LYTE activity assay (ThermoFisher SelectScreen); assay type: biochemical; design: purchased SelectScreen Services (ThermoFisher); conditions: [ATP] = Kmapp
Excerpt: as §6, §9, §10

RET [12] = target: T5, RET; assay: Z'-LYTE activity assay (ThermoFisher SelectScreen); assay type: biochemical; design: purchased SelectScreen Services (ThermoFisher); conditions: [ATP] = Kmapp
Excerpt: as §6, §9, §10

STK33 [13] = target: T1, STK33; assay: Kinase assay screening against STK33 at 500 nM; assay type: biochemical; design: purchased SelectScreen Services (ThermoFisher)

T1 sequence (Q9BYT3 whole entry): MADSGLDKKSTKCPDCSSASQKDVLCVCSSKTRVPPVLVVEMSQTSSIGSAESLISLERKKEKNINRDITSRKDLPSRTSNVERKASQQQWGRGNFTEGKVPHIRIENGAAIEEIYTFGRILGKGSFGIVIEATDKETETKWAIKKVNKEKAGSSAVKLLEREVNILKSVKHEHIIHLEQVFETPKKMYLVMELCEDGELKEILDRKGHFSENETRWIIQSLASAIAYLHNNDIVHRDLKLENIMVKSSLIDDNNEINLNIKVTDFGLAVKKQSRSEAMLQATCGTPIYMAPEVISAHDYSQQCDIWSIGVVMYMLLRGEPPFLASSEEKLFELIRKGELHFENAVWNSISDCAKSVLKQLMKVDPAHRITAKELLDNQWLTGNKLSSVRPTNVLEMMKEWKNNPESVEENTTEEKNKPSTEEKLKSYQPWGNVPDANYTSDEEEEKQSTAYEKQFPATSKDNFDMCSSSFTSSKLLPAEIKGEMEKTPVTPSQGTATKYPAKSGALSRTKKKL

For CN(C)[C@@H]1CCN(C(=O)c2ccc3[nH]nc(C#Cc4ccccc4-c4ccccc4)c3c2)C1 [CDD-2211], the “selectivity toward STK33 compared to CLK1, CLK2, CLK4, and RET” value (STK33 [1]) was > 10 fold, the IC50 (STK33 [1]) was 5 nM and the IC50 (CLK4 [2]) was 187 nM. For the same molecule, the “Fold NanoBRET IC50 CLK4 over STK33 (in parentheses)” value (CLK4 [2]) was 37 X, the IC50 (CLK2 [3]) was 48 nM and the “Fold NanoBRET IC50 CLK2 over STK33 (in parentheses)” value (CLK2 [3]) was 10 X. The IC50 (CLK1 [4]) was 115 nM, the “Fold NanoBRET IC50 CLK1 over STK33 (in parentheses)” value (CLK1 [4]) was 23 X and the IC50 (RET [5]) was 78 nM. For the same molecule, the “Fold NanoBRET IC50 RET over STK33 (in parentheses)” value (RET [5]) was 16 X, the half-life at 2 µM [6] was 10 min and the Kd (CLK4 [7]) was 2.5 ± 0.2 nM. It also gave a Kd (STK33 [8]) of 0.018 nM, a half-life at 2 µM [9] of 7 min and a Ki (CLK2 [10]) of 5.4 ± 0.4 nM. The Ki (CLK1 [11]) was 38.8 ± 5.5 nM and the Ki (RET [12]) was 0.47 ± 0.05 nM.

With CNC(=O)C1CCN(C2CCN(C(=O)c3ccc4[nH]nc(C#Cc5ccccc5-c5ccccc5)c4c3)C2)CC1 (stereo not drawn) [CDD-2110] the “selectivity toward STK33 compared to CLK1, CLK2, CLK4, and RET” value (STK33 [1]) was > 10 fold, the IC50 (STK33 [1]) was 38 nM and the “fold more potent than published STK33 inhibitors in cellular assays” value (STK33 [1]; vs compound 1, ML281, BRD8899) was 20- to 310 fold. The IC50 (CLK4 [2]) was 544 nM, the “Fold NanoBRET IC50 CLK4 over STK33 (in parentheses)” value (CLK4 [2]) was 14 X and the IC50 (CLK2 [3]) was 917 nM. The “Fold NanoBRET IC50 CLK2 over STK33 (in parentheses)” value (CLK2 [3]) was 24 X, the IC50 (CLK1 [4]) was 1210 nM and the “Fold NanoBRET IC50 CLK1 over STK33 (in parentheses)” value (CLK1 [4]) was 32 X. For the same molecule, the IC50 (RET [5]) was 746 nM, the “Fold NanoBRET IC50 RET over STK33 (in parentheses)” value (RET [5]) was 20 X and the half-life at 2 µM [6] was 10 min. For the same molecule, the Kd (CLK4 [7]) was 9.6 ± 1.2 nM, the Kd (STK33 [8]) was 0.1 nM and the “fold more potent than published STK33 inhibitors in biochemical assays” value (STK33 [8]; vs compound 1, ML281, BRD8899) was 12- to 400 fold. It also gave a half-life at 2 µM [9] of 25 min, a Ki (CLK2 [10]) of 27 ± 6.6 nM and a Ki (CLK1 [11]) of 234 ± 18 nM. For the same molecule, the Ki (RET [12]) was 3.1 ± 0.3 nM.

In the case of O=C(c1ccc2[nH]nc(C#Cc3ccccc3-c3ccccc3)c2c1)N1CCC2(CCCCN2)C1 (stereo not drawn) [Compound S3], the IC50 (STK33 [1]) is reported as 52 nM.

For O=C(c1ccc2[nH]nc(C#Cc3ccccc3-c3ccccc3)c2c1)N1CCC2(CCNCC2)C1 [Compound S5], the IC50 (STK33 [1]) was 1290 nM.

With O=C(c1ccc2[nH]nc(C#Cc3ccccc3-c3ccccc3)c2c1)N1CC2(CCNCC2)C1 [Compound S7] the IC50 (STK33 [1]) was 168 nM, the “Metabolic stability HLM, t1/2” value [6] was 235 min and the “Metabolic stability MLM, t1/2” value [9] was 46 min.

In the case of CN(C)C1CCN(C(=O)c2ccc3c(c2)c(C#Cc2ccccc2-c2ccccc2)nn3C)C1 (stereo not drawn) [Compound S8], the “kinase assay screening against STK33” value (STK33 [13]) is reported as “not passing”.

For CN(C)C1CCN(C(=O)c2ccc3[nH]nc(C#Cc4cccc(-c5ccccc5)c4)c3c2)C1 (stereo not drawn) [Compound S9], the IC50 (STK33 [1]) was 289 nM and the Kd (STK33 [8]) was 9.9 ± 2.3 nM.

For ML281 [reference compound], the Kd (CLK4 [7]) was > 1000 nM, the Ki (CLK2 [10]) was > 1000 nM and the Ki (CLK1 [11]) was > 1000 nM. For the same molecule, the Ki (RET [12]) was > 1000 nM.
